Laboratory results taken from EPA's ToxValDB 9.5 (doi:10.2903/j.efsa.2016.4452).

What was measured:
[1] = test system: Aphidius rhopalosiphi; assay: LR50; higher = less toxic; conditions: not reported; mortality
[2] = test system: Rattus norvegicus
[3] = test system: Canidae; conditions: chronic; duration: 1 years; oral; Dog Other; organ weight
[4] = test system: Anas platyrhynchos; conditions: reproductive; duration: 20 weeks; oral; feed; M
[5] = test system: Daphnia magna; conditions: chronic/long-term; duration: 21 days; reproduction
[6] = test system: Apis mellifera; conditions: acute, mortality
[7] = test system: Colinus virginianus; conditions: acute, oral, diet, mortality
[8] = test system: Bibionidae; conditions: chronic/long-term; duration: 28 days; reproduction
[9] = test system: Oryctolagus sp.; conditions: reproduction developmental; no effects
[10] = test system: Folsomia candida; conditions: chronic/long-term; duration: 28 days
[11] = test system: Tagia sp.
[12] = test system: Lepomis macrochirus; conditions: acute; duration: 96 hours; mortality
[13] = test system: Pimephales promelas; conditions: chronic/long-term; duration: 28 days; reproduction

SMILES	LR50 [1]	LD50 ([2]; acute, oral, mortality)	NOAEL ([2]; reproduction developmental, no effects)	LOAEL [3]	NOAEL [4]	NOEC [5]	LD50 ([6]; dermal)	LD50 ([6]; oral, unspecified)	LD50 ([7]; duration: 8 days)	LD50 ([7]; duration: 14 days)	NOEC [8]	NOAEL [9]	NOEC [10]	LC50 ([11]; acute, duration: 14 days, mortality)	NOEC ([11]; chronic/long-term, duration: 56 days)	LC50 [12]	NOEC [13]
CC(NC(=O)c1cc(Cl)cc(Br)c1NC(=O)c1cc(Br)nn1-c1ncccc1Cl)C1CC1 (stereo not drawn) [Cyclaniliprole]	0.507 g/ha	> 2000 mg/kg-day	1000 mg/kg-day	1.29 mg/kg-day	2.7 mg/kg-day	0.015 mg/L	0.486 µg/piece	0.194 µg/piece	> 1000 mg/kg-day	> 2000 mg/kg-day	0.061 mg/kg	1000 mg/kg-day	1.25 mg/kg	> 500 mg/kg	500 mg/kg	> 0.15 mg/L	0.2 mg/L
O=c1[nH]c(-c2cc(Br)nn2-c2ncccc2Cl)nc2c(Br)cc(Cl)cc12 [Cyclaniliprole metabolite (NSY-28)]				1.29 mg/kg-day													
